Assay results from ChEMBL document CHEMBL5331140, “Discovery of IACS-52825, a Potent and Selective DLK Inhibitor for Treatment of Chemotherapy-Induced Peripheral Neuropathy” (J Med Chem, 2023).
Converted amounts (≈) assume the structure as drawn.

Tests used:
[1] = Ratio of unbound drug concentration in C57BL/6 mouse brain to plasma at 0.3 mg/kg, iv measured for 24 hrs by LC-MS/MS analysis; format: ADME, organism-based; details: brain and plasma, read-out: K(p,uu,brain)
[2] = Permeability in wild type MDCK cells across basolateral to apical side at 5 uM incubated for 90 mins by LC-MS/MS analysis; format: ADME, cell-based, Canis lupus familiaris; details: dog, read-out: permeability
[3] = Permeability in MDCK-MDR1 cells across apical to basolateral side at 5 uM incubated for 90 mins by LC-MS/MS analysis; format: ADME, cell-based, Canis lupus familiaris; details: dog, read-out: permeability
[4] = Toxicity in monkey measured after 7 days by IND-enabling study; parameters: species or system Macaca mulatta; details: rhesus monkey, in vivo, 168 h; time 7 day
[5] = Half life in cynomolgus monkey at 1 mg/kg, po or 0.3 mg/kg, iv measured for 24 hrs by LC-MS/MS analysis; format: ADME, organism-based, Macaca fascicularis; details: in vivo
[6] = Bioavailability in cynomolgus monkey at 1 mg/kg, po or 0.3 mg/kg, iv measured for 24 hrs by LC-MS/MS analysis; format: ADME, organism-based, Macaca fascicularis; details: in vivo
[7] = target: T1, Mitogen-activated protein kinase kinase kinase 12 (Homo sapiens, UniProt Q12852); experiment: Inhibition of doxycycline-inducible human DLK transfected in HEK293 cells assessed as reduction in c-Jun phosphorylation at Ser63 residue incubated for 5 hrs; format: cell-based
T1 sequence (Q12852 whole entry): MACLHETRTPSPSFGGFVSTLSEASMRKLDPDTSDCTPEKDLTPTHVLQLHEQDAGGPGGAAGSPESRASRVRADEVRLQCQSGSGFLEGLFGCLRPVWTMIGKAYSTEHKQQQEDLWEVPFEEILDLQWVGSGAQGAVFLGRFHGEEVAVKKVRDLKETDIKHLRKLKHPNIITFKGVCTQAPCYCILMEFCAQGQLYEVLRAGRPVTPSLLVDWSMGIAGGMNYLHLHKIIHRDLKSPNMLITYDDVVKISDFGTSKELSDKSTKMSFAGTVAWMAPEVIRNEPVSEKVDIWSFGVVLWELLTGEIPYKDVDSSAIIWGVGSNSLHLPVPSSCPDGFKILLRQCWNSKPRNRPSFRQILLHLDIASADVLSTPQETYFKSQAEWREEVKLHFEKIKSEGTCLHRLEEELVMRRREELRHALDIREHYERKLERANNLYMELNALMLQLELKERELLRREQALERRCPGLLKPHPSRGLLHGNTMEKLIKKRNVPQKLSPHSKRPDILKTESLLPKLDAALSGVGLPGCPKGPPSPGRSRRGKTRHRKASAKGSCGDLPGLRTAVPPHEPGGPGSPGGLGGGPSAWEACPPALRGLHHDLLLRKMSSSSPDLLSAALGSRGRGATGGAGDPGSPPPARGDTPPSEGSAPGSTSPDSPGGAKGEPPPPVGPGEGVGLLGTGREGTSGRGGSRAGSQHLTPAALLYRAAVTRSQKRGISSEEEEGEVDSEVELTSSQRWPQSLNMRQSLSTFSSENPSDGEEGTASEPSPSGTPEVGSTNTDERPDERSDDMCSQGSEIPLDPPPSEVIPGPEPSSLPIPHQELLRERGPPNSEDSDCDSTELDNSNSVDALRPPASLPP

[8] = Volume of distribution at steady state in cynomolgus monkey at 1 mg/kg, po or 0.3 mg/kg, iv measured for 24 hrs by LC-MS/MS analysis; format: ADME, organism-based, Macaca fascicularis; details: in vivo
[9] = target: Cytochrome P450 2C19 (Homo sapiens, UniProt P33261); experiment: Inhibition of CYP2C19 in human liver microsomes using S-mephenytoin as substrate incubated for 45 mins in presence of NADPH by LC-MS/MS analysis; format: ADME, Microsome
Sequence of Cytochrome P450 2C19 (P33261 whole entry): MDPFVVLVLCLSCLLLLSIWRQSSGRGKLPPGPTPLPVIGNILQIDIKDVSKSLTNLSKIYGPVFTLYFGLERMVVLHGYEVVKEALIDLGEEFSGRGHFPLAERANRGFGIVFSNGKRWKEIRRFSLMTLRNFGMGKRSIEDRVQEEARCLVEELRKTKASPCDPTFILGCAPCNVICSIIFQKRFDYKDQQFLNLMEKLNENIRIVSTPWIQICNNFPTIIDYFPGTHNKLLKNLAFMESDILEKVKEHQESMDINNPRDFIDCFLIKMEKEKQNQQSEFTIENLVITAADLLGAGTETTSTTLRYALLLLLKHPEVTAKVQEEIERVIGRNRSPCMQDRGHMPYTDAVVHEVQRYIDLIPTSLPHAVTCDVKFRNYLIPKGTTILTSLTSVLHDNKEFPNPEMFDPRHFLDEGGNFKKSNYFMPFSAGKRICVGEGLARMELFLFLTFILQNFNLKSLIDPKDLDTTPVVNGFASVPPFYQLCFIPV

[10] = Half life in Beagle dog at 1 mg/kg, po or 0.3 mg/kg, iv measured for 24 hrs by LC-MS/MS analysis; format: ADME, organism-based, Canis lupus familiaris; details: in vivo
[11] = target: Cytochrome P450 2C9 (Homo sapiens, UniProt P11712); experiment: Inhibition of CYP2C9 in human liver microsomes using diclofenac as substrate incubated for 10 mins in presence of NADPH by LC-MS/MS analysis; format: ADME, Microsome
Sequence of Cytochrome P450 2C9 (P11712 whole entry): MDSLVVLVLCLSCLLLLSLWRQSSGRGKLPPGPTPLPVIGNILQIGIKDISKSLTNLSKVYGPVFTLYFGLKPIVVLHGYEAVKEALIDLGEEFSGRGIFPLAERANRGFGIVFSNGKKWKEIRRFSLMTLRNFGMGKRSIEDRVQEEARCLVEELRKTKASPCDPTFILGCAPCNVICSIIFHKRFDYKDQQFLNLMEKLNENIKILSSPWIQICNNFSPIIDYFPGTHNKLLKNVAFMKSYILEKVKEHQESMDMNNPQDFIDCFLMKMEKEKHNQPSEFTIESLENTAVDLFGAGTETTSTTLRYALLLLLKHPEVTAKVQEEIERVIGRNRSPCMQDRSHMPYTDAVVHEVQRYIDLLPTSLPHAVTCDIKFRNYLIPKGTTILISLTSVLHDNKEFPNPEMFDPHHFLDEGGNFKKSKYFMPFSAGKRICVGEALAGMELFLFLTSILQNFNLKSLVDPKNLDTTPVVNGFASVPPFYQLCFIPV

[12] = Half life in Sprague-Dawley rat at 3 mg/kg, po or 1 mg/kg, iv measured for 24 hrs by LC-MS/MS analysis; format: ADME, organism-based; details: in vivo
[13] = Metabolic stability in mouse liver microsomes assessed as intrinsic clearance at 1 uM in presence of NADPH regenerating system measured for 45 mins by LC-MS/MS analysis; format: ADME, Microsome; details: read-out: CLH
[14] = target: Cytochrome P450 3A4 (Homo sapiens, UniProt P08684); experiment: Inhibition of CYP3A4 in human liver microsomes using testosterone as substrate incubated for 5 mins in presence of NADPH by LC-MS/MS analysis; format: ADME, Microsome
Sequence of Cytochrome P450 3A4 (P08684 whole entry): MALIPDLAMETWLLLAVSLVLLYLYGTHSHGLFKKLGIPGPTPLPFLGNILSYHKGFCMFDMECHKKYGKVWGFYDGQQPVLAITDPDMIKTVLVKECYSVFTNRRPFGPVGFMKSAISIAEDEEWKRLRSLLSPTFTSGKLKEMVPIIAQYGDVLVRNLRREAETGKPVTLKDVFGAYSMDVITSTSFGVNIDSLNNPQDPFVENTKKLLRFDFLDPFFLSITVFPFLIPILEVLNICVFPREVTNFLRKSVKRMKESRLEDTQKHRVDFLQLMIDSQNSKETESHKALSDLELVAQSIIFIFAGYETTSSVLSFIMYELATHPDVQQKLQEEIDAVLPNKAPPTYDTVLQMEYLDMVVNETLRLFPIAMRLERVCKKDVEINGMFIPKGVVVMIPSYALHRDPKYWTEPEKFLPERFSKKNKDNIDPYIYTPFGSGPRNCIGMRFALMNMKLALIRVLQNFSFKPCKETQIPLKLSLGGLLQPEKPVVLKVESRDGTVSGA

[15] = Plasma protein binding in monkey at 5 uM incubated for 5 hrs by rapid equilibrium dialysis method; format: ADME, cell-free, Macaca mulatta; details: rhesus monkey, read-out: PPB (converted)
[16] = Plasma protein binding in dog at 5 uM incubated for 5 hrs by rapid equilibrium dialysis method; format: ADME, cell-free, Canis lupus familiaris; details: read-out: PPB (converted)
[17] = Cmax in Beagle dog at 1 mg/kg, po or 0.3 mg/kg, iv measured for 24 hrs by LC-MS/MS analysis; format: ADME, organism-based, Canis lupus familiaris; parameters: time 24 hrs, dose 1 mg/kg, route po; details: in vivo
[18] = Metabolic stability in human liver microsomes assessed as intrinsic clearance at 1 uM in presence of NADPH regenerating system measured for 45 mins by LC-MS/MS analysis; format: ADME, Microsome; details: read-out: CLH
[19] = Half life in C57BL/6 mouse at 0.3 mg/kg, iv administered via tail vein and measured for 24 hrs by LC-MS/MS analysis; format: ADME, organism-based; details: in vivo
[20] = Plasma protein binding in mouse at 5 uM incubated for 5 hrs by rapid equilibrium dialysis method; format: ADME, cell-free; details: read-out: PPB (converted)
[21] = AUClast in cynomolgus monkey at 1 mg/kg, po or 0.3 mg/kg, iv measured for 24 hrs by LC-MS/MS analysis; format: ADME, organism-based, Macaca fascicularis; parameters: dose 1 mg/kg, time 24 hrs, route po; details: in vivo
[22] = Binding affinity to full length human DLK (1 to 859 residues)/NFkappaB DNA binding domain (unknown origin) fusion protein transfected in HEK293 cells assessed as dissociation constant incubated for 1 hr by Kinomescan assay; format: cell-based
[23] = Thermodynamic aqueous solubility of compound in FeSSIF at pH 5 incubated for 1 hr under shaking condition by LC-MS/MS analysis; format: physicochemical; details: read-out: Therm_solubility
[24] = Plasma protein binding in human at 5 uM incubated for 5 hrs by rapid equilibrium dialysis method; format: ADME, cell-free; details: read-out: PPB
[25] = Bioavailability in Beagle dog at 1 mg/kg, po or 0.3 mg/kg, iv measured for 24 hrs by LC-MS/MS analysis; format: ADME, organism-based, Canis lupus familiaris; details: in vivo
[26] = Thermodynamic aqueous solubility of compound in FaSSIF at pH 6.5 incubated for 1 hr under shaking condition by LC-MS/MS analysis; format: physicochemical; details: read-out: Therm_solubility
[27] = target: Cytochrome P450 2D6 (Homo sapiens, UniProt P10635); experiment: Inhibition of CYP2D6 in human liver microsomes using bufuralol as substrate incubated for 10 mins in presence of NADPH by LC-MS/MS analysis; format: ADME, Microsome
Sequence of Cytochrome P450 2D6 (P10635 whole entry): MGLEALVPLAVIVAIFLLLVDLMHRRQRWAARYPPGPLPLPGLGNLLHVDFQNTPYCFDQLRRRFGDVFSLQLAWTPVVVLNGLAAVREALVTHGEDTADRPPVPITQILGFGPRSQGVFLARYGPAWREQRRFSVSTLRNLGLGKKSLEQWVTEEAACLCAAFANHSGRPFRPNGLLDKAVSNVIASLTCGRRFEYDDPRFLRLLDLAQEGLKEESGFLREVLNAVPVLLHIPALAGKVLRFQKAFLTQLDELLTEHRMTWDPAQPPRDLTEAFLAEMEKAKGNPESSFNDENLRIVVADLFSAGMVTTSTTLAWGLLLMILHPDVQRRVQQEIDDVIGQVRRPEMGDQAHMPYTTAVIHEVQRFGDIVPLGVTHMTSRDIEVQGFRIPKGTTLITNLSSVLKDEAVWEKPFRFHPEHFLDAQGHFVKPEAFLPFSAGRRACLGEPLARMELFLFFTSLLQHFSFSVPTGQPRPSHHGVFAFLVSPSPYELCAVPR

[28] = Oral bioavailability in Sprague-Dawley rat at 3 mg/kg measured for 24 hrs by LC-MS/MS analysis; format: ADME, organism-based; details: in vivo
[29] = Metabolic stability in dog hepatocytes assessed as intrinsic clearance at 2 uM measured for 120 mins by LC-MS analysis; format: ADME, cell-based, Canis lupus familiaris, Hepatocyte; details: read-out: CLH

`Nc1ncc(-c2cn(C34CC(F)(C3)C4)c([C@@H](O)C(F)(F)F)n2)cc1OC(F)(F)F` gave a Kp uu at 24 h [1] of 0.92, a Papp B→A at 1.5 h, 5 µM [2] of 31 ×10⁻⁶ cm/s and a Papp A→B at 1.5 h, 5 µM [3] of 43 ×10⁻⁶ cm/s. For the same compound, the Activity [4] was “Non-Toxic”, the half-life [5] was 7.2 h and the bioavailability [6] was over 100%. The IC50 [7] was 0.107 µM, the Vdss [8] was 5.3 L/kg and the IC50 [9] was over 10 µM. It also gave a half-life [10] of 8.5 h, an IC50 [11] of over 10 µM and a half-life [12] of 12 h. The CLint scaled at 1 µM [13] was 14 mL/min/kg, the IC50 [14] was over 10 µM and the fraction unbound at 5 h, 5 µM [15] was 0.139. The fraction unbound at 5 h, 5 µM [16] was 0.053, the Cmax [17] was 1200 nM and the CLint scaled at 1 µM [18] was 3 mL/min/kg. It also gave a half-life [19] of 13 h, a fraction unbound at 5 h, 5 µM [20] of 0.075 and an AUC(0-t) at 24 h [21] of 4.7 µM·h. For the same compound, the Kd [22] was 0.0013 µM, the solubility thermodynamic at 1 h [23] was 152 µM (≈ 64.8 µg/mL) and the fraction unbound at 5 h, 5 µM [24] was 0.091. It also gave a bioavailability [25] of over 100%, a solubility thermodynamic at 1 h [26] of 38 µM (≈ 16.2 µg/mL) and an IC50 [27] of over 10 µM. The bioavailability [28] was 95% and the CLint scaled at 2 µM [29] was 9.2 mL/min/kg.
